Active and inactive are the calls of the source. The calls are words filed in the database; no cut-off is given here.
How the values were obtained:
[1] = Inhibition of aggrecanase at 1 uM
[2] = target: T1, Macrophage metalloelastase (Homo sapiens, UniProt P39900); experiment: Inhibition of MMP12
Target sequence in this assay (P39900 whole entry, the tested form may be a part): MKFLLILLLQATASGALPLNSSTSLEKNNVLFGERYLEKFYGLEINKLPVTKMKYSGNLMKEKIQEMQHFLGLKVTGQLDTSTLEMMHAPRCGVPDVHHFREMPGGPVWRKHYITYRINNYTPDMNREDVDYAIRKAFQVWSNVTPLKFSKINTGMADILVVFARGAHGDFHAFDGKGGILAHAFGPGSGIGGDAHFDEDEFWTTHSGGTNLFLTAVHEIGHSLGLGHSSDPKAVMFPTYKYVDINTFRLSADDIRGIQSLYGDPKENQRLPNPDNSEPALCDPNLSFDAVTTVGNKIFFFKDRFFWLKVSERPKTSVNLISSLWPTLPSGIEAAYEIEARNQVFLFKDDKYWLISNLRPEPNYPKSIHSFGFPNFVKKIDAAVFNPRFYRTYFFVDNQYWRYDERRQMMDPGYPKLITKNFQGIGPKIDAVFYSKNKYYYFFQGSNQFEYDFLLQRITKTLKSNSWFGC

[3] = target: Disintegrin and metalloproteinase domain-containing protein 17 (Homo sapiens, UniProt P78536); experiment: Inhibition of TACE
[4] = target: T2, Disintegrin and metalloproteinase domain-containing protein 10 (Homo sapiens, UniProt O14672); experiment: Inhibition of ADAM10
T2 sequence (O14672 whole entry): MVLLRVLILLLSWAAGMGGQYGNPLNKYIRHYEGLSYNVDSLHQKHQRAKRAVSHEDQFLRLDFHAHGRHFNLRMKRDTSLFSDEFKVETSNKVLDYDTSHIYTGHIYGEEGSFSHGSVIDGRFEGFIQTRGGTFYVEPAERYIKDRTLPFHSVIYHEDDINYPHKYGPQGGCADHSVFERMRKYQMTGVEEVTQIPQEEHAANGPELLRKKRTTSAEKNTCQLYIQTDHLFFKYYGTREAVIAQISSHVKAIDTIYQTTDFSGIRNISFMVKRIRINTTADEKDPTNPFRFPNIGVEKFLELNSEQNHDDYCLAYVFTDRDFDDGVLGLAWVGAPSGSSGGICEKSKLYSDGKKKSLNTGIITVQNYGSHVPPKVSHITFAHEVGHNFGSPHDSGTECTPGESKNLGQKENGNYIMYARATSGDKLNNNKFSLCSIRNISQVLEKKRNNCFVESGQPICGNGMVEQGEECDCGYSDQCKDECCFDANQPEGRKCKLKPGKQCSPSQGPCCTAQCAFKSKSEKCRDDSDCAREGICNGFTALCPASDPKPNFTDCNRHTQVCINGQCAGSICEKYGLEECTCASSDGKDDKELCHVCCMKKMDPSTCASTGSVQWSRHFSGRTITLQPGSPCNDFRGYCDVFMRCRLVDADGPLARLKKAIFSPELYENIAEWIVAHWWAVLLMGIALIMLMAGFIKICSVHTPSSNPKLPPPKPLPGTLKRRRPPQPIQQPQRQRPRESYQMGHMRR

[5] = target: T1, Macrophage metalloelastase; experiment: Inhibition of MMP12 up to 100 uM
Target sequence in this assay (P39900 106-470 limits assumed): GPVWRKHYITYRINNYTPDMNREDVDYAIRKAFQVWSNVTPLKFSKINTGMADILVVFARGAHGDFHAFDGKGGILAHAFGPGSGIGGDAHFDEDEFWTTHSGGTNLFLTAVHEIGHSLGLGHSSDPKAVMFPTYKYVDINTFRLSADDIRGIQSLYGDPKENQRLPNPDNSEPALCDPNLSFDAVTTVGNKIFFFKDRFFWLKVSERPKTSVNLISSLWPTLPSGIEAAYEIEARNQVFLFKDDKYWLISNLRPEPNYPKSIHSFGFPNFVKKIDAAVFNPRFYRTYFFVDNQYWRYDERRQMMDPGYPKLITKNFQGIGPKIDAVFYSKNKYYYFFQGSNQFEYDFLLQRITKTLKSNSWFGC

Neutrophil collagenase [6] = target: T3, Neutrophil collagenase (Homo sapiens, UniProt P22894); experiment: Inhibition of MMP8 up to 100 uM
Target sequence in this assay (P22894 101-467 limits assumed): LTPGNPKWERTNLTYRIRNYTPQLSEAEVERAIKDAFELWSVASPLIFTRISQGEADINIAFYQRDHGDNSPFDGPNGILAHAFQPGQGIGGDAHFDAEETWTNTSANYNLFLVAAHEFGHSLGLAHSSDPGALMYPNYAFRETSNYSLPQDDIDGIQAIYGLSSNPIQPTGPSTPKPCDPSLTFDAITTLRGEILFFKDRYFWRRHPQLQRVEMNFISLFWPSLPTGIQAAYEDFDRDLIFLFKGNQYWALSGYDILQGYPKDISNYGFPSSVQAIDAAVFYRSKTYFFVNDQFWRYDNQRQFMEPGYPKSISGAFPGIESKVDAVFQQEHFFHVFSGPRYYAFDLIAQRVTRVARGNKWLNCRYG

[7] = target: T4, Matrix metalloproteinase-17 (Homo sapiens) (UniProt Q9ULZ9); experiment: Inhibition of MMP17 up to 100 uM
T4 sequence (whole entry): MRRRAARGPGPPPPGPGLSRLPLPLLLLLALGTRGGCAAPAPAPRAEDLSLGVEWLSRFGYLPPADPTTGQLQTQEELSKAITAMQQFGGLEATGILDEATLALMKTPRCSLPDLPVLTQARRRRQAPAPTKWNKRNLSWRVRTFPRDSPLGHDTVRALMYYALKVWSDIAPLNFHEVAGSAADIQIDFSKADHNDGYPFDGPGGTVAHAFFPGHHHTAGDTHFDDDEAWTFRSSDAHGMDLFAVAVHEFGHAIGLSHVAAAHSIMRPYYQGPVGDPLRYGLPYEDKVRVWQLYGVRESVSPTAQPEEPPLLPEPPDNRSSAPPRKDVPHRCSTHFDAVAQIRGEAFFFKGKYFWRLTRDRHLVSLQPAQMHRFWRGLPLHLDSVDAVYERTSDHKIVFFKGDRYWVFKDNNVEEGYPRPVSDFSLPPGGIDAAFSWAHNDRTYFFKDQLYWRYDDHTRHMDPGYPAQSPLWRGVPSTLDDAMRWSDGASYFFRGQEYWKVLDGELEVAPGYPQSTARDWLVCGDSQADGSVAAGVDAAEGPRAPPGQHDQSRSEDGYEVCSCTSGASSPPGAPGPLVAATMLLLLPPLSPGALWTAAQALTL

[8] = target: T5, Matrilysin (Homo sapiens) (UniProt P09237); experiment: Inhibition of MMP7 up to 100 uM
T5 sequence (whole entry): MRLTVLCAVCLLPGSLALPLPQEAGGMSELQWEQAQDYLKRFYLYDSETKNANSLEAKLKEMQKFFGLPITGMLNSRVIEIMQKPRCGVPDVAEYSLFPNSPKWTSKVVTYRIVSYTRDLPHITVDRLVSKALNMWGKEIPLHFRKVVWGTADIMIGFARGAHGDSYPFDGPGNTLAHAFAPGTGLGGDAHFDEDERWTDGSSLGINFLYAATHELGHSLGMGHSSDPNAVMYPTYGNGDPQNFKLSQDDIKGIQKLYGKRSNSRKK

[9] = target: Matrix metalloproteinase-14 (Homo sapiens, UniProt P50281); experiment: Inhibition of MMP14 up to 100 uM
[10] = target: T6, Matrix metalloproteinase-9 (Homo sapiens, UniProt P14780); experiment: Inhibition of MMP9 up to 100 uM
T6 sequence (P14780 whole entry): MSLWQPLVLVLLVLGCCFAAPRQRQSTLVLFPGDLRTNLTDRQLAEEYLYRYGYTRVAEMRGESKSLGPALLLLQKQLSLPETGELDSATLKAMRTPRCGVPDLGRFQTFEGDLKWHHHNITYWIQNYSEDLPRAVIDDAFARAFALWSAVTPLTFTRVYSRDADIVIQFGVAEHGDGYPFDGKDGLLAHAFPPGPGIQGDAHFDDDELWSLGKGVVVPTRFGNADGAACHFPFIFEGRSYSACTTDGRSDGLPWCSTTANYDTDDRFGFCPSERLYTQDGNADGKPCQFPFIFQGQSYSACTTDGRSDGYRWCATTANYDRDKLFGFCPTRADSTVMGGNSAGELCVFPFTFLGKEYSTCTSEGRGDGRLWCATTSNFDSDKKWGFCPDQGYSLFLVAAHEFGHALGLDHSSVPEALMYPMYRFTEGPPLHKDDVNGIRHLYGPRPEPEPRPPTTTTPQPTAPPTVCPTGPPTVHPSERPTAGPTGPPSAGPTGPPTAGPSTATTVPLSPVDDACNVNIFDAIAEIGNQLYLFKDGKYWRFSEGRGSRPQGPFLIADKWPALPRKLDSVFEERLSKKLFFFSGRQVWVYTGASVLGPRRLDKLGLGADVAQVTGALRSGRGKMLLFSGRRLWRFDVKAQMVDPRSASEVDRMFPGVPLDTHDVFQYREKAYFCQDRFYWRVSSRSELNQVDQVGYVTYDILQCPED

Stromelysin-1 [11] = target: T7, Stromelysin-1 (Homo sapiens, UniProt P08254); experiment: Inhibition of MMP3 up to 100 uM
Target sequence in this assay (P08254 100-477 limits assumed): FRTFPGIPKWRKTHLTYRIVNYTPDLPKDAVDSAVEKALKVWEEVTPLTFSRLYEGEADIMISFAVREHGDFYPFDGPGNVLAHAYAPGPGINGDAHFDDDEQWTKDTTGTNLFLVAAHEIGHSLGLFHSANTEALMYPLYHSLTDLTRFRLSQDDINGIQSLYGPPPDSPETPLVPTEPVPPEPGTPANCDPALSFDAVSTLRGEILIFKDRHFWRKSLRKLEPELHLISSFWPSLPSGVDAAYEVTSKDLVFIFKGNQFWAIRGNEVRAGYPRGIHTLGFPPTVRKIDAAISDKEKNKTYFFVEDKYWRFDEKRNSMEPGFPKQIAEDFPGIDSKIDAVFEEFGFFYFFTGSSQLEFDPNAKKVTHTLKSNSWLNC

[12] = target: T8, Interstitial collagenase (Homo sapiens) (UniProt P03956); experiment: Inhibition of MMP1 at 100 uM
T8 sequence (whole entry): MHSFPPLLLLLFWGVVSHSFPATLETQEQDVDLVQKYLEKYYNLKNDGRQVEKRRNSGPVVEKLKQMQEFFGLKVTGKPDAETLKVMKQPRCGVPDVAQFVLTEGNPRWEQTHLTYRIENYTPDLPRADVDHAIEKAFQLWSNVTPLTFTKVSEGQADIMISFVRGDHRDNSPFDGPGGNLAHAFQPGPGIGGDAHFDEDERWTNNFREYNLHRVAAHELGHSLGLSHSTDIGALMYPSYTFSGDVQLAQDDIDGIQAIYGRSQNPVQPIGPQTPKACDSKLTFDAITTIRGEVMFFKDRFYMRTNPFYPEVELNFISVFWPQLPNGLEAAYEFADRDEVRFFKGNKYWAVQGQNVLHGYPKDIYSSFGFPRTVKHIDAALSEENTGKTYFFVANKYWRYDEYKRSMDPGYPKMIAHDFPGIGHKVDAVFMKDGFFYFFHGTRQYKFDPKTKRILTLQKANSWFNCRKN

[13] = target: T9, 72 kDa type IV collagenase (Homo sapiens, UniProt P08253); experiment: Inhibition of MMP2 up to 100 uM
Target sequence in this assay (P08253 110-660 limits assumed): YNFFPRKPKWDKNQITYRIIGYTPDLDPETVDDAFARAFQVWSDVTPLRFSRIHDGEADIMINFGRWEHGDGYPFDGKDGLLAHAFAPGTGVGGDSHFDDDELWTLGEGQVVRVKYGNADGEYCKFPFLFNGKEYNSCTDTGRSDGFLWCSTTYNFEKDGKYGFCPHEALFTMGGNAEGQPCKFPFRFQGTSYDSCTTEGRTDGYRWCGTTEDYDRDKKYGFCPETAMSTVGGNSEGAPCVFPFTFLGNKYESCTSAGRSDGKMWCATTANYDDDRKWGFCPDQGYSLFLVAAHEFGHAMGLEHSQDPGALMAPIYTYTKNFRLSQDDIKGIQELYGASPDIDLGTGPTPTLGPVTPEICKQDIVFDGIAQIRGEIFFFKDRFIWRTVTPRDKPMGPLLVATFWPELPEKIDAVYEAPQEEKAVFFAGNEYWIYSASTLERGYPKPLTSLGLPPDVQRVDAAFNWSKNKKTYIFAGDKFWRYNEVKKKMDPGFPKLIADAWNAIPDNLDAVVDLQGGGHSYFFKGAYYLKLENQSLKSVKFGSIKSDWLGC

[14] = target: T6, Matrix metalloproteinase-9; experiment: Inhibition of MMP9
Stromelysin-1 [15] = target: T7, Stromelysin-1
Target sequence in this assay (P08254 whole entry): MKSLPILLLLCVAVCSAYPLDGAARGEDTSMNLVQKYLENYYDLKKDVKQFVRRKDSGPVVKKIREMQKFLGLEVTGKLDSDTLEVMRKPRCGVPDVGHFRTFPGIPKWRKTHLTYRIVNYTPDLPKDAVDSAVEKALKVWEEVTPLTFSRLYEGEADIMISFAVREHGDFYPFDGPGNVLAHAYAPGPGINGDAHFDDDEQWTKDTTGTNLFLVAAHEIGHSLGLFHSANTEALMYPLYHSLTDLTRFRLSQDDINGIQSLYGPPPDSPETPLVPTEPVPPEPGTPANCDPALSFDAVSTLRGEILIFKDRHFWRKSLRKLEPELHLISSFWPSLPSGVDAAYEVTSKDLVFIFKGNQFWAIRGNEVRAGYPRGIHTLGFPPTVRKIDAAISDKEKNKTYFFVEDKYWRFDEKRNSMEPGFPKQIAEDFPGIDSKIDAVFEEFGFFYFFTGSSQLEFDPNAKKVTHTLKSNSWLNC

[16] = target: T9, 72 kDa type IV collagenase
Target sequence in this assay (P08253 whole entry): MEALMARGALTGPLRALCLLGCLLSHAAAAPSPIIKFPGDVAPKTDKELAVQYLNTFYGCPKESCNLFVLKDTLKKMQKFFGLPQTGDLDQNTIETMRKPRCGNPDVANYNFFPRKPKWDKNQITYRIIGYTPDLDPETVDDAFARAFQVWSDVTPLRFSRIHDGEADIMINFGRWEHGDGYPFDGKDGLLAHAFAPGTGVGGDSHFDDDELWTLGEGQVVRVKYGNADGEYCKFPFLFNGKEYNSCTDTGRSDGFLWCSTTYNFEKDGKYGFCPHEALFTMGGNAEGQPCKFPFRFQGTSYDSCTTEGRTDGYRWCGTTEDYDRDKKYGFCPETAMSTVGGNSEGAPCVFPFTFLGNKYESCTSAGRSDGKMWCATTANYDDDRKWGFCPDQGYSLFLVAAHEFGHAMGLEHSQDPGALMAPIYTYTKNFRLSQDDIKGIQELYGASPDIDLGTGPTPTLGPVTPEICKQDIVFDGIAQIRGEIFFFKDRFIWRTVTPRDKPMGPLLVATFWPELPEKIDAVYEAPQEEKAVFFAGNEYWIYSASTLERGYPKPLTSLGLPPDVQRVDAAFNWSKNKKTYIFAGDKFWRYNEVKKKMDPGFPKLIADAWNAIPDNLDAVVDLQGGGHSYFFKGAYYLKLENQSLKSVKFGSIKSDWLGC

Interstitial collagenase = target: T10, Interstitial collagenase (Homo sapiens, UniProt P03956)
T10 sequence (P03956 whole entry): T8 sequence (whole entry)

[17] = Inhibition of bovine aggrecanase; design: species or system Bos taurus
[18] = target: Disintegrin and metalloproteinase domain-containing protein 17 (Sus scrofa, UniProt O77636); experiment: Inhibition of pig TACE
Collagenase 3 = Collagenase 3 (Homo sapiens, UniProt P45452); experiment: Inhibition of MMP13 at 10 uM
[19] = target: T8, Interstitial collagenase (Homo sapiens); experiment: Inhibition of MMP1 at 10 uM
[20] = target: T6, Matrix metalloproteinase-9; experiment: Inhibition of MMP9 at 10 uM
Neutrophil collagenase [21] = target: T3, Neutrophil collagenase; experiment: Inhibition of MMP8
[22] = Selectivity for TACE over MMP1
[23] = Selectivity for TACE over MMP7
[24] = Selectivity for TACE over BMP1
[25] = Selectivity for TACE over ADAM10
[26] = Selectivity for TACE over MMP14
[27] = Selectivity for TACE over MMP3
[28] = Selectivity for TACE over MMP2
[29] = target: A disintegrin and metalloproteinase with thrombospondin motifs 5 (Homo sapiens, UniProt Q9UNA0); experiment: Inhibition of ADAMTS5

Disintegrin and metalloproteinase domain-containing protein 17 (Homo sapiens, UniProt P78536), sequence (P78536 whole entry, the tested form may be a part): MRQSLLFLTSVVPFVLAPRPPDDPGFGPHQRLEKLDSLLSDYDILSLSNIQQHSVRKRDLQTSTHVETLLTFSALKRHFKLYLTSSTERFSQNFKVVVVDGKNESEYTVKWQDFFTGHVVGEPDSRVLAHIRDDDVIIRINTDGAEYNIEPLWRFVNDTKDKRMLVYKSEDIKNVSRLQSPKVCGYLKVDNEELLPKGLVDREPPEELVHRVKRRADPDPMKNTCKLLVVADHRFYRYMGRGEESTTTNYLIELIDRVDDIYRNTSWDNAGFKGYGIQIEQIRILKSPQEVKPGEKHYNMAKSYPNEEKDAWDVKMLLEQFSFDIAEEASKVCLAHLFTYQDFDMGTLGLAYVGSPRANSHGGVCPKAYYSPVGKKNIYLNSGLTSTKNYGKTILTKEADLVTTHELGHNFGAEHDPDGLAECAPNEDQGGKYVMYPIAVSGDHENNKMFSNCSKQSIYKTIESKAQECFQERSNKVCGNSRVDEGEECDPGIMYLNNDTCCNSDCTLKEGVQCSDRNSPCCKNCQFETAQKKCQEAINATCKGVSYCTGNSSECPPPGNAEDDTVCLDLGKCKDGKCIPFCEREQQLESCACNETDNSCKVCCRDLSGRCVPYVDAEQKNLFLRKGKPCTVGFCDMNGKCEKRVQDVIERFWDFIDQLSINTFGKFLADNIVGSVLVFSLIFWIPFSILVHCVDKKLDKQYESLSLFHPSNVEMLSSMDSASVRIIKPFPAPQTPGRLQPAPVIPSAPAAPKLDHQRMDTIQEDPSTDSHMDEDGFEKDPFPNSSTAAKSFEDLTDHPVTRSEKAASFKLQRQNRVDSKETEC

With Cc1cc(COc2ccc(C(=O)NCC3(N4CCN(S(C)(=O)=O)CC4)C(=O)NC(=O)NC3=O)cc2)c2ccccc2n1 the inhibition [1] was 11%.

Compound CN1CC2(CC2)C[C@H](C(=O)NO)[C@H]1C(=O)N1CCN(c2ccc(C(F)(F)F)cn2)CC1 has an IC50 [2] of 0.564 µM, an IC50 [3] of 2.04 µM and an IC50 [4] of 0.097 µM.

For Cn1c(=O)n(Cc2ccc(C(=O)O)cc2)c(=O)c2cc(C#CCc3ccccc3)ccc21, the Activity [5] was “inactive”, the Activity (Neutrophil collagenase [6]) was “inactive” and the Activity [7] was “inactive”. The Activity [8] was “inactive”, the Activity [9] was “inactive” and the Activity [10] was “inactive”. For the same compound, the Activity (Stromelysin-1 [11]) was “inactive”, the Activity [12] was “inactive” and the Activity [13] was “inactive”.

In the case of Cc1cc(C#N)ccc1N1CCN(S(=O)(=O)CC2(C(=O)NO)CCN(C(=O)O[C@@H]3CCOC3)CC2)CC1, the IC50 [14] is reported as > 5 µM, the IC50 (Stromelysin-1 [15]) is reported as > 5 µM and the IC50 [16] is reported as > 5 µM. The IC50 (Interstitial collagenase) was > 5 µM and the IC50 [4] was 0.026 µM.

With O=C(NO)[C@@H](NCC1CC1)[C@@H](Cc1cccc(O)c1)C(=O)N[C@H]1c2ccccc2C[C@H]1O the IC50 [17] was 0.012 µM.

With Cc1cc(COc2ccc(NC(=O)[C@H]3[C@H](C(=O)NO)CCCN3C)cc2)c2ccccc2n1 the IC50 [18] was 0.0062 µM, the Ki [14] was > 2.13 µM and the Ki [16] was > 3.33 µM. The Ki (Interstitial collagenase) was > 4.95 µM.

With Cc1cc(=O)c(O)c(C(=O)NCc2ccc(-c3ccc(-c4ccccc4)cc3)cc2)o1 the IC50 [16] was > 50 µM and the IC50 (Interstitial collagenase) was > 50 µM.

For CC#CCOc1ccc(S(=O)(=O)C2(C(=O)NO)CCN(c3ccc(Cl)cc3)CC2)cc1, the inhibition (Collagenase 3) was 56%, the inhibition [19] was 52% and the inhibition [20] was 52%.

O=S(=O)(CC1CS1)c1ccc(Oc2ccccc2)cc1 (stereo not given) gave a Ki [3] of 3.7 µM.

For O=C(OCc1ccccc1)c1cn2c(=O)n(Cc3ccccc3)c(=O)cc2s1, the Activity [5] was “inactive”, the Activity (Neutrophil collagenase [6]) was “inactive” and the Activity [7] was “inactive”. The Activity [8] was “inactive”, the Activity [9] was “inactive” and the Activity [10] was “inactive”. The Activity (Stromelysin-1 [11]) was “inactive”, the Activity [12] was “inactive” and the Activity [13] was “inactive”.

With COc1c(Br)ccc2oc(COc3ccc(-c4ccc(S(=O)(=O)N[C@@H](C(=O)O)C(C)C)cc4)cc3)c(C)c12 the IC50 (Stromelysin-1 [15]) was 0.081 µM, the IC50 (Interstitial collagenase) was > 400 µM and the IC50 (Neutrophil collagenase [21]) was 0.042 µM. For the same compound, the IC50 [3] was > 25 µM.

With COC(=O)[C@@]1(Cc2ccc(OCc3cc(C)nc4ccccc34)cc2)C[C@@H]1C(=O)NO the fold change (FC) [22] was > 12500, the fold change (FC) [23] was 200 and the fold change (FC) [24] was 2200. For the same compound, the fold change (FC) [25] was > 7000, the fold change (FC) [26] was 1800 and the fold change (FC) [27] was 100. The fold change (FC) [28] was 1100.

For O=C(N[C@@H]1CCOC[C@@H]1C(=O)NO)c1ccc(Cn2c(C(F)(F)F)nc3ccccc32)cc1, the Ki [29] was 1.9 µM.

Reference: ChEMBL document CHEMBL1141723, “Specific targeting of metzincin family members with small-molecule inhibitors: progress toward a multifarious challenge” (Bioorg Med Chem, 2008)
